One test has as its system EL-4 thymoma cells. Kind of test: EL-4 hepatic metastatic spread model (liver weight). It counts as in vivo, C57BL/6 mice. The procedure:
Syngeneic C57BL/6 mice were inoculated intravenously through the tail vein with 2x10^5 EL-4 thymoma cells. Mice were randomized and distributed into groups of 7-9 animals. Experimental groups received intraperitoneal treatments with 200µg of synthetic and natural variants of NGcGM3 or vehicle (5.6% sucrose solution, 0.75% L-histidine and 0.5% Tween20) on days 1, 5 and 9. Animals were sacrificed 12-13 days after tumor inoculation, livers were removed and weighed to determine the level of hepatic metastatic spread. The liver weight of healthy animals of the same age and batch was used as a control.
Syngeneic C57BL/6 mice were inoculated intravenously through the tail vein with 2x10^5 EL-4 thymoma cells; mice were randomized and distributed into groups of 7-9 animals. Experimental groups received intraperitoneal treatments with 10-30 µg of nanoparticles of NGcGM3 d18:1-C24:1, NGcGM3 d18:1-C18:0 and natural NGcGM3 with OMPC of N. meningitidis on days 1, 5 and 9 or Tris/HCl solution (Placebo). Animals were sacrificed 12-13 days after tumor inoculation. To determine the level of liver metastatic spread, their livers were removed and weighed.
Syngeneic C57BL/6 mice were inoculated intravenously through the tail vein with 2x10^5 EL-4 thymoma cells; mice were randomized and distributed into groups of 7-9 animals. On the day following tumor inoculation, 6x10^5 bmDC, previously cultured for 16 hours with vehicle (DMSO 0.1%), NGcGM3 d18:1-C24:1 ganglioside (10 µg/ml) or NGcGM3 extracted from natural source (10 µg/ml) were administered in a single dose, intravenously. Cells were extensively washed with serum-free RPMI-1640 medium to remove excess of lipids before transfer. Animals were sacrificed 12-13 days after tumor inoculation, livers were collected and the level of hepatic metastatic spread was determined by weigh. Livers from healthy mice of the same age and batch were used as a reference. […] Clearly, the transfer of bmDC pulsed with NGcGM3 d18:1-C24:1, induce a significant reduction of EL-4 liver metastasis, compared to the placebo group, in which empty dendritic cells were transferred. […], the transfer of bmDC incubated with ganglioside extracted from a natural source was ineffective. (equal letters p>0.05, different letters p<0.05, ANOVA and Tukey tests). […]
To maintain the depletion of the populations of interest throughout the duration of the experiment, equal doses of depleting antibodies were administered on days 4 and 11 after tumor inoculation. Animals were sacrificed 12-13 days after tumor inoculation, livers were removed and the level of hepatic metastatic spread was determined by weigh. […]

The test system of the next test is P3X63 myeloma cells. Kind of test: Subcutaneous P3X63 myeloma tumor growth (tumor volume). It counts as in vivo, BALB/c mice. The following applies: day 5. Here is the method: 1x10^6 P3X63 cells were implanted subcutaneously into syngeneic BALB/c mice. Animals were randomized, divided into groups of 6-8 and received intraperitoneal treatments with 200 µg NGcGM3 d18:1-C24:1 ganglioside, αGalCer or vehicle (5.6% sucrose solution, 0.75% L-histidine and 0.5% Tween20 0.5%) on days 1, 5 and 9. Tumor diameters were measured with a caliper and tumor volume (TV) was calculated according to the formula: TV (mm^3) = π/6 × major diameter × (minor diameter)^2. […] The individual tumor volume values of the animals in each group and the mean and standard deviation of the mean in each case on day 5 of the experiment are shown. […] Table 1. Percentage distribution of tumor volume of the animals in each group.
1x10^6 P3X63 myeloma cells were implanted subcutaneously into syngeneic BALB/c mice. Animals were randomized, divided into groups of 6-8 and received treatments with vehicle solution (5.6% sucrose, 0.75% L-histidine and 0.5% Tween-20), αGalCer, NGcGM3 d18:1-C24:1 or nanoparticles of OMPC and NGcGM3 d18:1-C24:1 (GlycoVax 24:1) on days 1, 5 and 9.
Subcutaneous tumor diameters were measured every 2-3 days with a caliper and TV was calculated according to the formula: TV (mm^3) = π/6 × major diameter × (minor diameter)^2. […]

Setting [1] is: Example 5, Table 1, 1x10^6 P3X63 s.c., i.p. on days 1, 5 and 9 (200 µg NGcGM3 d18:1-C24:1).
The mark [2] stands for this setting: Example 10, Table 2, 1x10^6 P3X63 s.c., treatment on days 1, 5 and 9.

Turning to `CCCCCCCCC=CCCCCCCCCCCCCCC(=O)NC(COC1OC(CO)C(OC2OC(CO)C(O)C(OC3(C(=O)O)CC(O)C(NC(=O)CO)C(C(O)C(O)CO)O3)C2O)C(O)C1O)C(O)C=CCCCCCCCCCCCCC` [NGcGM3 d18:1-C24:1, O-[3,5-didesoxy-5-hydroxyacetamido-D-glycero-α-D-galacto-2-nonupyranosyl-(2→3)-O-(β-D-galactopyranosyl)-(1→4)-β-D-glucopyranosyl-(1→1)-(2R,3S,4E)-2-tetracos-15-enamido-4-octadecene-1,3-diol], in the test with EL-4 thymoma cells (2x10^5 EL-4 i.v., 200 µg i.p. on days 1, 5 and 9, livers weighed 12-13 days after inoculation, Figure 2), the “antimetastatic effect (liver weight, hepatic metastatic spread)” value is given as “statistically significant antimetastatic effect”. Also, the “anti-metastatic effect (liver weight), NK and NKT cell populations not affected” value in the test with EL-4 thymoma cells (Example 18, 200 µg i.p. on days 1, 5 and 9 + PBS) was “is present”. For the same compound, the “anti-metastatic effect (liver weight) after depletion of NK and NKT cells” value in the test on EL-4 thymoma cells (Example 18, 200 µg i.p. on days 1, 5 and 9 + anti-NK1.1 Mab, Figure 18a) is listed as “abolishes the aforementioned anti-tumor effect”. Besides, in the test with EL-4 thymoma cells (Example 18, 200 µg i.p. on days 1, 5 and 9 + anti-asialoGM1 antibody, Figure 18b), the “anti-metastatic effect (liver weight) after depletion of NK cells only” value is reported as “the antitumor effect is maintained”. In the test on P3X63 myeloma cells (setting [1]), the “TV < 36 mm^3 (percentage distribution of tumor volume of the animals)” value amounted to 50% and the “TV > 36 mm^3 (percentage distribution of tumor volume of the animals)” value is 50%. The “TV < 36 mm^3 (percentage distribution of tumor volume of the animals)” value with P3X63 myeloma cells (Example 5, Table 1, 1x10^6 P3X63 s.c., i.p. on days 1, 5 and 9 (200 µg NGcGM3 d18:1-C24:1), listed as NGcGM3 24:1) was 50%. Moreover, the “growth of subcutaneous tumors” value in the test on P3X63 myeloma cells (Example 5, p<0.001 for NGcGM3 d18:1-C24:1, p<0.05 for αGalCer vs placebo) is recorded as “significantly inhibited the growth of subcutaneous tumors”. Moreover, in the test on P3X63 myeloma cells (setting [2]), the “TV < 36 mm^3 (percentage distribution of tumor volume of animals)” value was 50% and the “TV > 36 mm^3 (percentage distribution of tumor volume of animals)” value was found to be 50%. In addition, the “TV < 36 mm^3 (percentage distribution of tumor volume of animals)” value in the test on P3X63 myeloma cells (Example 10, Table 2, 1x10^6 P3X63 s.c., treatment on days 1, 5 and 9, listed as NGcGM3 24:1) stood at 50%. Moreover, in the test on P3X63 myeloma cells (Example 10, p=0.0031 NGcGM3 d18:1-C24:1, p=0.0004 GlycoVax 24:1), the “antitumor effect (inhibition of tumor growth vs control group)” value was “significant inhibition of tumor growth”.

The values above are taken from patent EP4635966A1, “SYNTHETIC VARIANTS OF THE GANGLIOSIDE NGCGM3 AND USE THEREOF IN CANCER TREATMENT” (Centro de Inmunologia Molecular, priority 2022, dated 2024).
